We go through 32 compounds from patent publication US20110224208A1, “NOVEL INHIBITORS OF FLAVIVIRUS REPLICATION” (KATHOLIEKE UNIVERSITEIT LEUVEN, K.U. LEUVEN R&D, priority 2008, published 2011).

The structures appear in SMILES notation. ≈ marks a conversion by molar mass, not a printed value.

The assay relates to HCV replicon I389luc-ubi-neo/NS3-3'/5.1. Nature of the assay: Anti-HCV replicon assay (luciferase activity) in Huh-5-2 cells. As to conditions: Hepatitis C virus, Huh-5-2, 72 h, concentration required to inhibit luciferase activity in the replicon system by 50%. Type of assay: cell-based, Hepatitis C virus. Here is the method: Cells were seeded at a density of 7000 cells per well in 96 well View Plate™ (Packard) in medium containing the same components as described above, except for G418. Cells were allowed to adhere and proliferate for 24 hr. At that time, culture medium was removed and serial dilutions of the test compounds were added in culture medium lacking G418. Interferon alfa 2a (500 IU) was included as a positive control. Plates were further incubated at 37° C. and 5% CO2 for 72 hours. Replication of the HCV replicon in Huh-5 cells results in luciferase activity in the cells. Luciferase activity is measured by adding 50 μl of 1×Glo-lysis buffer (Promega) for 15 minutes followed by 50 ul of the Steady-Glo Luciferase assay reagent (Promega). Luciferase activity is measured with a luminometer and the signal in each individual well is expressed as a percentage of the untreated cultures. […] Instead the density of the culture is measured by means of the MTS method (Promega).
With `COCCN1C(=O)c2ccccc2C(C(=O)Nc2ccc(-n3cccc3)c(C#N)c2)C1c1cccs1` (centres unmarked) [C222, N-(3-cyano-4-(1H-pyrrol-1-yl)phenyl)-2-(2-methoxyethyl)-1-oxo-3-(thiophen-2-yl)-1,2,3,4-tetrahydroisoquinoline-4-carboxamide], the IC50 was found to be 0.21 µg/mL (≈ 0.423 µM).

`COCCN1C(=O)c2cccc(F)c2C(C(=O)Nc2cccc(OC)c2)C1c1cccs1` (centres unmarked) [C61, 5-Fluoro-2-(2-methoxyethyl)-N-(3-methoxyphenyl)-1-oxo-3-(thiophen-2-yl)-1,2,3,4-tetrahydroisoquinoline-4-carboxamide] registered an IC50 of 0.22 µg/mL (≈ 0.484 µM).

In the case of `COCCN1C(=O)c2ccccc2C(C(=O)Nc2cccc(OC)c2)C1c1c(F)cccc1F` (centres unmarked) [C10, 3-(2,6-Difluorophenyl)-2-(2-methoxyethyl)-N-(3-methoxyphenyl)-1-oxo-1,2,3,4-tetrahydroisoquinoline-4-carboxamide], the IC50 amounted to 32.1 µg/mL (≈ 68.9 µM). Against the preceding compound, the IC50 is about 150-fold higher.

Consider `CCC1C(C(=O)Nc2cccc(OC)c2)c2ccccc2C(=O)N1CCOC` (centres unmarked) [C58, 3-Ethyl-2-(2-methoxyethyl)-N-(3-methoxyphenyl)-1-oxo-1,2,3,4-tetrahydroisoquinoline-4-carboxamide], for which the IC50 came out at 1.81 µg/mL (≈ 4.73 µM). Compared with the last compound, the IC50 is about 18-fold lower.

Compound `COCCN1C(=O)c2ccccc2C(C(=O)Nc2ccc3scnc3c2)C1c1cccs1` (centres unmarked) [C164, N-(benzo[d]thiazol-5-yl)-2-(2-methoxyethyl)-1-oxo-3-(thiophen-2-yl)-1,2,3,4-tetrahydroisoquinoline-4-carboxamide] registered an IC50 of 0.13 µg/mL (≈ 0.28 µM).

For `COCCN1C(=O)c2ccccc2C(C(=O)Nc2cccc(OC)c2)C1c1ccccc1` (centres unmarked) [C28, 2-(2-Methoxyethyl)-N-(3-methoxyphenyl)-1-oxo-3-phenyl-1,2,3,4-tetrahydroisoquinoline-4-carboxamide], half-maximal inhibition (IC50) required 38.8 µg/mL (≈ 90 µM).

On to `COCCN1C(=O)c2ccccc2C(C(=O)Nc2ccc(N3CCOCC3)cc2)C1c1cccs1` (centres unmarked) [C121, 2-(2-methoxyethyl)-N-(4-morpholinophenyl)-1-oxo-3-(thiophen-2-yl)-1,2,3,4-tetrahydroisoquinoline-4-carboxamide], for which the IC50 amounted to 1.06 µg/mL (≈ 2.16 µM).

`COCCN1C(=O)c2ccccc2C(C(=O)Nc2nc(C)co2)C1c1cccs1` (centres unmarked) [C154, 2-(2-methoxyethyl)-N-(4-methyloxazol-2-yl)-1-oxo-3-(thiophen-2-yl)-1,2,3,4-tetrahydroisoquinoline-4-carboxamide]: the IC50 was 3.68 µg/mL (≈ 8.94 µM).

Take `COCCN1C(=O)c2ccccc2C(C(=O)NCCOc2ccccc2)C1c1cccs1` (centres unmarked) [C34, 2-(2-Methoxyethyl)-1-oxo-N-(2-phenoxyethyl)-3-(thiophen-2-yl)-1,2,3,4-tetrahydroisoquinoline-4-carboxamide]: inhibition was half-maximal at 16.5 µg/mL (≈ 36.7 µM) (IC50).

In turn, `COCCN1C(=O)c2ccccc2C(C(=O)Nc2nc(-c3ccccc3)ns2)C1c1cccs1` (centres unmarked) [C194, 2-(2-methoxyethyl)-1-oxo-N-(3-phenyl-1,2,4-thiadiazol-5-yl)-3-(thiophen-2-yl)-1,2,3,4-tetrahydroisoquinoline-4-carboxamide] came in with an IC50 of 0.019 µg/mL (≈ 0.0387 µM). This IC50 lies about 870-fold lower than the previous one.

In the case of `COc1cccc(NC(=O)C2c3ccccc3C(=O)N(CCN(C)C)C2c2cccs2)c1` (centres unmarked) [C15, 2-(2-(Dimethylamino)ethyl)-N-(3-methoxyphenyl)-1-oxo-3-(thiophen-2-yl)-1,2,3,4-tetrahydroisoquinoline-4-carboxamide], the IC50 worked out at 11.8 µg/mL (≈ 26.3 µM). This IC50 is about 620-fold higher than that of the compound before.

Turning to `COCCN1C(=O)c2ccccc2C(C(=O)Nc2cccc(C)c2)C1c1cccs1` (centres unmarked) [C85, 2-(2-methoxyethyl)-1-oxo-3-(thiophen-2-yl)-N-m-tolyl-1,2,3,4-tetrahydroisoquinoline-4-carboxamide], the IC50 worked out at 0.18 µg/mL (≈ 0.428 µM).

Consider `COCCN1C(=O)c2ccccc2C(C(=O)Nc2ccc(Cl)cc2N)C1c1cccs1` (centres unmarked) [C144, N-(2-amino-4-chlorophenyl)-2-(2-methoxyethyl)-1-oxo-3-(thiophen-2-yl)-1,2,3,4-tetrahydroisoquinoline-4-carboxamide], for which the half-maximal inhibitory concentration (IC50) is 5.16 µg/mL (≈ 11.3 µM).

In the case of `COCCN1C(=O)c2ccccc2C(C(=O)Nc2cccc(OC)c2)C1c1cc(C)no1` (centres unmarked) [C104, 2-(2-methoxyethyl)-N-(3-methoxyphenyl)-3-(3-methylisoxazol-5-yl)-1-oxo-1,2,3,4-tetrahydroisoquinoline-4-carboxamide], inhibition was half-maximal at 10.1 µg/mL (≈ 23.1 µM) (IC50).

With `COCCN1C(=O)c2ccccc2C(C(=O)Nc2cccc(OC)c2)C1C` (centres unmarked) [C69, 2-(2-methoxyethyl)-N-(3-methoxyphenyl)-3-methyl-1-oxo-1,2,3,4-tetrahydroisoquinoline-4-carboxamide], the IC50 amounted to 8.7 µg/mL (≈ 23.6 µM).

The compound `COCCN1C(=O)c2ccccc2C(C(=O)Nc2ccncn2)C1c1cccs1` (centres unmarked) [C162, 2-(2-methoxyethyl)-1-oxo-N-(pyrimidin-4-yl)-3-(thiophen-2-yl)-1,2,3,4-tetrahydroisoquinoline-4-carboxamide] registered an IC50 of 3.56 µg/mL (≈ 8.72 µM). Against the preceding compound, the IC50 is about 2.4-fold lower.

In turn, `COCCN1C(=O)c2ccccc2C(C(=O)Nc2ccc3c(c2)CCN3C)C1c1cccs1` (centres unmarked) [C176, 2-(2-methoxyethyl)-N-(1-methylindolin-5-yl)-1-oxo-3-(thiophen-2-yl)-1,2,3,4-tetrahydroisoquinoline-4-carboxamide] displayed an IC50 of 0.48 µg/mL (≈ 1.04 µM).

Regarding `COCCN1C(=O)c2ccccc2C(C(=O)Nc2ccc3[nH]ncc3c2)C1c1cccs1` (centres unmarked) [C132, N-(1H-indazol-5-yl)-2-(2-methoxyethyl)-1-oxo-3-(thiophen-2-yl)-1,2,3,4-tetrahydroisoquinoline-4-carboxamide], the midpoint of inhibition, the IC50, lay at 1 µg/mL (≈ 2.24 µM).

For the compound `COCCN1C(=O)c2ccccc2C(C(=O)Nc2ccc(Cl)cn2)C1c1cccs1` (centres unmarked) [C223, N-(5-chloropyridin-2-yl)-2-(2-methoxyethyl)-1-oxo-3-(thiophen-2-yl)-1,2,3,4-tetrahydroisoquinoline-4-carboxamide], half-maximal inhibition (IC50) was put at 1 µg/mL (≈ 2.26 µM).

The compound `COCCN1C(=O)c2c(C)cccc2C(C(=O)Nc2cccc(OC)c2)C1c1cccs1` (centres unmarked) [C42, 2-(2-Methoxyethyl)-N-(3-methoxyphenyl)-8-methyl-1-oxo-3-(thiophen-2-yl)-1,2,3,4-tetrahydroisoquinoline-4-carboxamide] returned an IC50 of 0.5 µg/mL (≈ 1.11 µM).

In the case of `COCCN1C(=O)c2cc(C(F)(F)F)ccc2C(C(=O)Nc2cccc(OC)c2)C1c1cccs1` (centres unmarked) [C92, 2-(2-methoxyethyl)-N-(3-methoxyphenyl)-1-oxo-3-(thiophen-2-yl)-7-(trifluoromethyl)-1,2,3,4-tetrahydroisoquinoline-4-carboxamide], it took 7.04 µg/mL (≈ 14 µM) to reach half-maximal inhibition (IC50).

As for `COCCN1C(=O)c2cc(I)ccc2C(C(=O)Nc2cccc(OC)c2)C1c1cccs1` (centres unmarked) [C56, 7-Iodo-2-(2-methoxyethyl)-N-(3-methoxyphenyl)-1-oxo-3-(thiophen-2-yl)-1,2,3,4-tetrahydroisoquinoline-4-carboxamide], it took 0.98 µg/mL (≈ 1.74 µM) to reach half-maximal inhibition (IC50).

Regarding `COCCN1C(=O)c2ccccc2C(C(=O)Nc2cc[nH]n2)C1c1cccs1` (centres unmarked) [C184, 2-(2-methoxyethyl)-1-oxo-N-(1H-pyrazol-3-yl)-3-(thiophen-2-yl)-1,2,3,4-tetrahydroisoquinoline-4-carboxamide], the IC50 was found to be 55 µg/mL (≈ 139 µM). Against the preceding compound, the IC50 is about 56-fold higher.

Consider `COCCN1C(=O)c2ccccc2C(C(=O)Nc2nc(C)c(C)s2)C1c1cccs1` (centres unmarked) [C156, N-(4,5-dimethylthiazol-2-yl)-2-(2-methoxyethyl)-1-oxo-3-(thiophen-2-yl)-1,2,3,4-tetrahydroisoquinoline-4-carboxamide], for which it took 37.4 µg/mL (≈ 84.7 µM) to reach half-maximal inhibition (IC50).

Regarding `COCCN1C(=O)c2cc(OC)c(OC)cc2C(C(=O)Nc2cccc(OC)c2)C1c1cccs1` (centres unmarked) [C75, 6,7-dimethoxy-2-(2-methoxyethyl)-N-(3-methoxyphenyl)-1-oxo-3-(thiophen-2-yl)-1,2,3,4-tetrahydroisoquinoline-4-carboxamide], the midpoint of inhibition, the IC50, lay at 43.1 µg/mL (≈ 86.9 µM). The IC50 values of the last two compounds are within 1.5-fold of each other.

`COCCN1C(=O)c2ccccc2C(C(=O)Nc2onc(C)c2C)C1c1cccs1` (centres unmarked) [C220, N-(3,4-dimethylisoxazol-5-yl)-2-(2-methoxyethyl)-1-oxo-3-(thiophen-2-yl)-1,2,3,4-tetrahydroisoquinoline-4-carboxamide]: the IC50 was found to be 2.67 µg/mL (≈ 6.27 µM).

`COCCN1C(=O)c2c(F)ccc(F)c2C(C(=O)Nc2cccc(OC)c2)C1c1cccs1` (centres unmarked) [C91, 5,8-difluoro-2-(2-methoxyethyl)-N-(3-methoxyphenyl)-1-oxo-3-(thiophen-2-yl)-1,2,3,4-tetrahydroisoquinoline-4-carboxamide] displayed an IC50 of 0.32 µg/mL (≈ 0.677 µM).

In turn, `COCCN1C(=O)c2ccccc2C(C(=O)Nc2cccc(OC)c2)C1c1ccc(C)s1` (centres unmarked) [C12, 2-(2-Methoxyethyl)-N-(3-methoxyphenyl)-3-(5-methylthiophen-2-yl)-1-oxo-1,2,3,4-tetrahydroisoquinoline-4-carboxamide] returned an IC50 of 1.2 µg/mL (≈ 2.66 µM).

On to `COCCN1C(=O)c2ccccc2C(C(=O)O)C1c1cccs1` (centres unmarked) [C36, 2-(2-methoxyethyl)-1-oxo-3-(thiophen-2-yl)-1,2,3,4-tetrahydroisoquinoline-4-carboxylic acid], for which the IC50 came out at 47.1 µg/mL (≈ 142 µM).

`CCN1CCCC1CN1C(=O)c2ccccc2C(C(=O)Nc2cccc(OC)c2)C1c1cccs1` (centres unmarked) [C67, 2-((1-ethylpyrrolidin-2-yl)methyl)-N-(3-methoxyphenyl)-1-oxo-3-(thiophen-2-yl)-1,2,3,4-tetrahydroisoquinoline-4-carboxamide] displayed an IC50 of 10.4 µg/mL (≈ 21.3 µM).

`COCCN1C(=O)c2ccccc2C(C(=O)Nc2ccc(C(C)C)cc2)C1c1cccs1` (centres unmarked) [C165, N-(4-isopropylphenyl)-2-(2-methoxyethyl)-1-oxo-3-(thiophen-2-yl)-1,2,3,4-tetrahydroisoquinoline-4-carboxamide]: the IC50 was 0.4 µg/mL (≈ 0.892 µM). This IC50 is about 26-fold lower than that of the compound before.

In the case of `COCCN1C(=O)c2ccccc2C(C(=O)Nc2ccc(Cl)c(Cl)c2)C1c1cccs1` (centres unmarked) [C87, N-(3,4-dichlorophenyl)-2-(2-methoxyethyl)-1-oxo-3-(thiophen-2-yl)-1,2,3,4-tetrahydroisoquinoline-4-carboxamide], the IC50 was found to be 0.15 µg/mL (≈ 0.316 µM).

Usually IC50 stands for the concentration needed to halve the response being measured.
